The nature of the data set: Pharmacokinetics studies in mice (i.v. and s.c. bolus, plasma LC–MS/MS). Type of data set: in vivo. The settings on record: mouse; for AUC / bioavailability: both sexes, C57BL/6 N J, plasma LC–MS/MS; for AUC: tail vein blood over 90 min; for Clearance: s.c. The protocol:
Male and female mice aged between 12–18 weeks old were used for these studies. Gast p59−79, ChgA 435−462a and Sst 25−36 were administered intravenously (i.v.) at 1 mg/kg and subcutaneously (s.c.) at various doses (see Fig. 7A, B and C for details on specific doses for each peptide). Blood samples were collected using EDTA coated microvette tubes (Starsedt, Leicester, UK) from the tail vein at various time points over 90 min. Blood was centrifuged (2000 g, 10 min, 4 °C) and the plasma separated. A 0.1 M sodium citrate (Sigma-Aldrich) buffer (adjusted to pH 3 with citric acid (Sigma-Aldrich)) was added to the plasma at a dilution of 1 in 10 to prevent degradation of Gast p59−79 and Sst 25−36. Plasma was stored -70 °C till extraction.
On the day of analysis, plasma samples were thawed, spiked with a stable isotope labelled version of Gast p59−79, ChgA 435−462a or Sst 25−36, and crashed with 200 μL 80 % ACN. After centrifuging, supernatants were removed and dried under gaseous nitrogen at 40 °C using a SPE Dry evaporator system (Biotage, Upsalla, Sweden). SPE was performed as described previously.
A Xevo TQ-XS triple quadrupole mass spectrometer coupled to H-class Aquity UPLC system enabled high throughput and targeted sample analysis. The column used was a Waters HSS T3 2.1 × 50 mm column at 60 °C and flowing at 350 μL/min. LC–MS/MS analysis was performed using positive ESI with a spray voltage of 3 kV, desolvation temperature 600°C, gas flow rate 1000 L/h and cone voltage of 40 V. Solvent A was 0.1 % FA in water (v/v) and Solvent B was 0.1 % FA in ACN (v/v). Each sample (40 μL per sample) was injected onto the column for 30 s with starting conditions set at 90 % A and 10 % B before the % B was increased to 50 % over the course of 3.5 min. The column was flushed with 90 % B for 1.5 min before initial conditions were restored. Total run time per sample was 5.5 min. Table 1 details the specifications used to quantify Gast p59−79, ChgA 435−462a, Sst 25−36 and their stable isotope labelled versions on a Xevo TQ-XS mass spectrometer.
Raw data files obtained on the Xevo TQ-XS triple quadrupole mass spectrometer were analysed using TargetLynx XS v4.2 software (Waters). Peptides were quantified by integrating the corresponding peaks and normalised to an internal standard if available. For pharmacokinetics studies, the concentration of peptide was estimated by comparing against a calibration line. SAAM II v2.2.1 (The Epsilon Group) with a Rosenbrock integrator and no maximum number of iterations was used to create a model for Gast p59−79 distribution and elimination upon single dose administration to mice.

Where no end group is shown, it is not given here.

Broadly, the AUC is concentration integrated over time. By bioavailability is commonly meant dose-corrected exposure relative to a reference, in per cent. Low readings indicate poor availability, high ones good availability. Turning to “AEDQELESLSAIEAELEKVAHQLQALRR-NH2 [ChgA 435−462a]”, the AUC by setting is: (iv, 1 mg/kg) 362 ng·h/mL; (sc, 1 mg/kg) 169 ng·h/mL; (sc, 3 mg/kg) 547 ng·h/mL. For the same substance, the bioavailability runs as follows: (sc, 1 mg/kg) 46.7%; (sc, 3 mg/kg) 50.4%. The “mass delivery rate required to obtain steady state concentration of 1 nM” value (estimated from PK data (SAAM II model), osmotic pump infusion) was 0.29 mg/kg/day. Besides, the Clearance is 5.92 mL/h/kg (1 mg/kg) and 5.48 mL/h/kg (3 mg/kg).
APSDPRLRQFLQ [Sst 25−36]: where the note is “sc, 10 mg/kg”, the AUC is 3.3 ng·h/mL. For the setting “in vivo, sc, 10 mg/kg”, the “detection in plasma after s.c. injection” value is given as “only detectable at low concentrations”. The “half-life in vivo (in words)” value (pilot data) is on record as “very short half-life”. For the setting “10 mg/kg”, this substance showed a Clearance of 3030 mL/h/kg.

The record behind these values is paper PMC8121762, “Peptidomics of enteroendocrine cells and characterisation of potential effects of a novel preprogastrin derived-peptide on glucose tolerance in lean mice” (Peptides, 2021).
